{
  "source": "patent US20220073496A1",
  "about": "“NOVEL QUINOLINE DERIVATIVE INHIBITOR” (Nanjing Transthera Biosciences Co., Ltd., priority 2018, published 2022)",
  "key": {"[1]": {"target": "T1, CSF1R (h) (Homo sapiens, UniProt P07333)", "T1 construct": "purchased", "T1 sequence (P07333 20-972)": "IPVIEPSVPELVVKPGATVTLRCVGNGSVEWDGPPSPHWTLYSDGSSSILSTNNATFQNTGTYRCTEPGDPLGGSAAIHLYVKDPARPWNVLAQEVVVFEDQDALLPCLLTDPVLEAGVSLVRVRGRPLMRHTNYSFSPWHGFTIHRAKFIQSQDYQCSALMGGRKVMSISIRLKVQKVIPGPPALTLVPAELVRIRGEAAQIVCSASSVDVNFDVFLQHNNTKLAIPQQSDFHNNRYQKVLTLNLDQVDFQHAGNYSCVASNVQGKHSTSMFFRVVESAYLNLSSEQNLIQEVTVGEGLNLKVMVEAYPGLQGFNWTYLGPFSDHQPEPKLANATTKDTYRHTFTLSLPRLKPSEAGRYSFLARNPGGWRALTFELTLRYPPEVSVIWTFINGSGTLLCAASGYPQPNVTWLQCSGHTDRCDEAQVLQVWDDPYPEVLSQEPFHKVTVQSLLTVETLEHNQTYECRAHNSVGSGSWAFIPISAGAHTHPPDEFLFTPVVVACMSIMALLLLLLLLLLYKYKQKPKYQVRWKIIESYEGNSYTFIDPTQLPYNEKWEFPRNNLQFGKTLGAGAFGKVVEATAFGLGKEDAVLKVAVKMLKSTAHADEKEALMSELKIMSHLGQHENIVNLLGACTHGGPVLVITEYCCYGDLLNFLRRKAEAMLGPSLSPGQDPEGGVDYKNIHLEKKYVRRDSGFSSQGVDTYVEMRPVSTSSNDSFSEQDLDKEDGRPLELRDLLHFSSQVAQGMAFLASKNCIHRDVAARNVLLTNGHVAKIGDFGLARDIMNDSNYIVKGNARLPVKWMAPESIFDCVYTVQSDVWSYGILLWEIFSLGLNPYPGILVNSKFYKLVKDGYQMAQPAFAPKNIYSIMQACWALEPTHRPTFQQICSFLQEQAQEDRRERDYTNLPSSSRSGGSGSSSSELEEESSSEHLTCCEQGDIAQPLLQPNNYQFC", "experiment": "Enzymatic activity test, CSF1R (h)", "type": "biochemical", "conditions": "10 μM [γ-33P]-ATP, 40 minutes, room temperature", "description": "Assay 3: Enzymatic Activity Test of the Compounds of the Present Invention\nTest substances: the compounds of the present invention, wherein the structures and preparations thereof were as described above.\n(1) Preparation of the Compound Stock Solution\nThe compound was dissolved in 100% DMSO to prepare a stock solution with a maximum concentration of 500 μM.\n(2) Preparation of the Compound Working Solution\nThe compound stock solution was diluted to final concentrations of 500, 150, 50, 15, 5, 1.5, 0.5, 0.15 and 0.05 μM to become the compound working solutions (50×).\n(3) Preparation of Different Enzyme Reaction Solutions\nThe enzymatic reaction was activated by using 10 mM magnesium acetate and 10 μM [γ-^33P]-ATP to form an Mg/ATP mixed solution.\nIn a 384-well plate, the compound working solution was added to final concentrations of 10000, 3000, 1000, 300, 100, 30, 10, 3, and 1 nM. Then different enzyme reaction solutions prepared according to the above conditions were added. The incubation was carried out for 40 minutes at room temperature. The test was terminated by the addition of a 0.5% phosphoric acid solution. 10 μL of the reaction solution was taken and dropped to the P30 filter paper. […] The grayscale analysis of the results was performed using Image J software and the IC50 values were calculated using GraphPad 5.0 software."}, "[2]": {"experiment": "Rat PK evaluation", "type": "in vivo", "conditions": "SD rats; for Vz_obs iv (apparent distribution volume) / bioavailability / AUC(0-t) / clearance / half-life: n = 3; for bioavailability / AUC(0-t) / clearance / half-life / Tmax: rat, plasma; for bioavailability: read-out: F % (absolute bioavailability); for clearance: read-out: Cl_obs iv (clearance rate) (converted); for Tmax: n = 3, median, read-out: Tmax po (time to peak plasma concentration)", "description": "Assay 2: Rat PK Evaluation for the Compounds of the Present Invention\nAnimal Administration and Sample Collection:\n(§1) The test compounds 14, 15, 16, 20, 29, 30, 31, 32, 33, 34, 36, 37, 47 and 48 were dissolved in 5% DMSO+20% (30% solutol)+75% saline to prepare the compound solutions. Each of the compound solutions was intragastrically administered to SD rats at a dose of 5.0 mg/kg. The time points of blood collection were: 15 minutes, 30 minutes, 1 hour, 2 hours, 4 hours, 6 hours, 8 hours, 24 hours, 30 hours, and 48 hours.\nThe test compounds 38, 39, 40 and 41 were dissolved in 5% NMP+5% Tween-80+90% saline to prepare the compound solutions. Each of the compound solutions was intragastrically administered to SD rats at a dose of 5.0 mg/kg. The time points of blood collection were: 15 minutes, 30 minutes, 1 hour, 2 hours. 4 hours, 6 hours, 8 hours, 24 hours, 30 hours, and 48 hours.\nas §1, with “was” for “was intragastrically”, “administered by intravenous bolus injection” for “administered”, “1” for “5.0”, “were: 5 minutes,” for “were:”, “hours,” for “hours, 30 hours,”\nThe test compounds 38, 39, 40 and 41 were dissolved in 5% NMP+5% Tween-80+90% saline to prepare the compound solutions. Each of the compound solutions was administered by intravenous bolus injection to SD rats at a dose of 1 mg/kg. The time points of blood collection were: 5 minutes, 15 minutes, 30 minutes, 1 hour, 2 hours, 4 hours, 6 hours, 8 hours, 24 hours, and 48 hours.\nThe animal was fixed. The tail was heated in a water bath pot 10 minutes before each time point. About 100 μL of blood was collected through the tail vein. The blood was collected and placed in an anti-coagulation tube containing EDTA-K2. The blood sample was centrifuged at 8000 rpm for 6 minutes at 4° C. to obtain a plasma sample. The plasma was prepared within 30 minutes after the blood collection. The plasma was stored in a −80° C. refrigerator before testing.\nThe sample to be tested was taken out from the −80° C. refrigerator, naturally melted at room temperature and vortexed for 5 minutes. 20 μL of plasma sample was accurately pipetted into a 1.5 mL centrifuge tube. 200 μL of an internal standard working solution (a solution of tolbutamide in methanol) having a concentration of 100 ng/mL was added and mixed well. The mixture was vortexed for 5 minutes, and centrifuged at 12000 rpm for 5 minutes. 50 μL of the supernatant was accurately pipetted into a 96-well plate pre-filled with 150 μL/well of water. The plate was vortexed for 5 minutes and mixed well, and then the LC-MS/MS determination and analysis were performed.\nThe concentration of the test substance was output using Analyst 1.6.3 from AB Company. Parameters such as mean, standard deviation, and coefficient of variation were calculated with Microsoft Excel (direct outputs from Analyst 1.6.3 were not calculated), and the PK parameters were calculated using Pharsight Phoenix 6.1 software NCA (Tmax was the median)."}, "[3]": {"conditions": "IV 1 mg/kg, read-out: AUClast iv (area under the drug-time curve from 0 to 48 hours)"}, "[4]": {"conditions": "IV 1 mg/kg, read-out: tz1/2 iv (terminal elimination half-life) (converted)"}, "[5]": {"conditions": "PO 5 mg/kg, read-out: AUClast po (area under the drug-time curve from 0 to 48 hours)"}, "[6]": {"conditions": "PO 5 mg/kg, read-out: tz1/2 po (terminal elimination half-life) (converted)"}},
  "note": "Like-named read-outs stand apart in the source and are kept apart here.",
  "data": [
    {"smiles": "COc1cc2nccc(Oc3ncc(NC(=O)c4nn(C(C)C)cc(-c5ccc(F)cc5)c4=O)cn3)c2cc1OC", "note": "[Compound 34, N-(2-((6,7-dimethoxyquinolin-4-yl)oxy)pyrimidine-5-yl)-5-para-fluorophenyl-1-isopropyl-4-oxo-1,4-dihydropyridazine-3-carboxamide]", "values": [
      {"measurement": "IC50", "setting": "[1]", "result": 0.161, "unit": "µM"},
      {"measurement": "Vz_obs iv (apparent distribution volume)", "setting": "[2]; IV 1 mg/kg", "result": 0.15, "unit": "L/kg"},
      {"measurement": "bioavailability", "setting": "[2]; IV 1 mg/kg, PO 5 mg/kg", "result": 80.4, "unit": "%"},
      {"measurement": "AUC(0-t)", "setting": "[2]; [3]", "result": 81000, "unit": "ng·h/mL"},
      {"measurement": "clearance", "setting": "[2]; IV 1 mg/kg", "result": 0.217, "unit": "mL/min/kg"},
      {"measurement": "half-life", "setting": "[2]; [4]", "result": 7.46, "unit": "h"},
      {"measurement": "Tmax", "setting": "[2]; PO 5 mg/kg", "result": 4, "unit": "h"},
      {"measurement": "AUC(0-t)", "setting": "[2]; [5]", "result": 321000, "unit": "ng·h/mL"},
      {"measurement": "half-life", "setting": "[2]; [6]", "result": 8.31, "unit": "h"}
    ]},
    {"smiles": "COc1cc2nccc(Oc3ccc(NC(=O)c4nn(C5CC5)cc(-c5ccc(F)cc5)c4=O)cn3)c2cc1OC", "note": "[Compound 36]", "values": [
      {"measurement": "IC50", "setting": "[1]", "result": 0.068, "unit": "µM"},
      {"measurement": "Vz_obs iv (apparent distribution volume)", "setting": "[2]; IV 1 mg/kg", "result": 0.095, "unit": "L/kg"},
      {"measurement": "bioavailability", "setting": "[2]; IV 1 mg/kg, PO 5 mg/kg", "result": 57.5, "unit": "%"},
      {"measurement": "AUC(0-t)", "setting": "[2]; [3]", "result": 167000, "unit": "ng·h/mL"},
      {"measurement": "clearance", "setting": "[2]; IV 1 mg/kg", "result": 0.0967, "unit": "mL/min/kg"},
      {"measurement": "half-life", "setting": "[2]; [4]", "result": 11.6, "unit": "h"},
      {"measurement": "Tmax", "setting": "[2]; PO 5 mg/kg", "result": 4, "unit": "h"},
      {"measurement": "AUC(0-t)", "setting": "[2]; [5]", "result": 463000, "unit": "ng·h/mL"},
      {"measurement": "half-life", "setting": "[2]; [6]", "result": 12.7, "unit": "h"}
    ]},
    {"smiles": "COc1cc2nccc(Oc3ccc(NC(=O)c4cn(C(C)C)nc(-c5ccc(F)cc5)c4=O)cn3)c2cc1OC", "note": "[Compound 38, N-(6-((6,7-dimethoxyquinolin-4-yl)oxy)pyridin-3-yl)-6-para-fluorophenyl-2-isopropyl-5-oxo-2,5-dihydropyridazine-4-carboxamide]", "values": [
      {"measurement": "IC50", "setting": "[1]", "result": 0.057, "unit": "µM"},
      {"measurement": "Vz_obs iv (apparent distribution volume)", "setting": "[2]; IV 1 mg/kg", "result": 3.32, "unit": "L/kg"},
      {"measurement": "bioavailability", "setting": "[2]; IV 1 mg/kg, PO 5 mg/kg", "result": 81.6, "unit": "%"},
      {"measurement": "AUC(0-t)", "setting": "[2]; [3]", "result": 6000, "unit": "ng·h/mL"},
      {"measurement": "clearance", "setting": "[2]; IV 1 mg/kg", "result": 2.5, "unit": "mL/min/kg"},
      {"measurement": "half-life", "setting": "[2]; [4]", "result": 15.2, "unit": "h"},
      {"measurement": "Tmax", "setting": "[2]; PO 5 mg/kg", "result": 4, "unit": "h"},
      {"measurement": "AUC(0-t)", "setting": "[2]; [5]", "result": 25500, "unit": "ng·h/mL"},
      {"measurement": "half-life", "setting": "[2]; [6]", "result": 12.1, "unit": "h"}
    ]},
    {"smiles": "COc1cc2nccc(Oc3cnc(NC(=O)c4cn(C(C)C)nc(-c5ccc(F)cc5)c4=O)nc3)c2cc1OC", "note": "[Compound 39, N-(5-((6,7-dimethoxyquinolin-4-yl)oxy)pyrimidine-2-yl)-6-(4-fluorophenyl)-2-isopropyl-5-oxo-2,5-dihydropyridazine-4-carboxamide]", "values": [
      {"measurement": "IC50", "setting": "[1]", "result": 0.034, "unit": "µM"},
      {"measurement": "Vz_obs iv (apparent distribution volume)", "setting": "[2]; IV 1 mg/kg", "result": 1.21, "unit": "L/kg"},
      {"measurement": "bioavailability", "setting": "[2]; IV 1 mg/kg, PO 5 mg/kg", "result": 90.2, "unit": "%"},
      {"measurement": "AUC(0-t)", "setting": "[2]; [3]", "result": 6920, "unit": "ng·h/mL"},
      {"measurement": "clearance", "setting": "[2]; IV 1 mg/kg", "result": 2.5, "unit": "mL/min/kg"},
      {"measurement": "half-life", "setting": "[2]; [4]", "result": 5.89, "unit": "h"},
      {"measurement": "Tmax", "setting": "[2]; PO 5 mg/kg", "result": 2, "unit": "h"},
      {"measurement": "AUC(0-t)", "setting": "[2]; [5]", "result": 32400, "unit": "ng·h/mL"},
      {"measurement": "half-life", "setting": "[2]; [6]", "result": 5.67, "unit": "h"}
    ]},
    {"smiles": "COc1cc2nccc(Oc3ncc(NC(=O)c4cn(C(C)C)nc(-c5ccc(F)cc5)c4=O)cn3)c2cc1OC", "note": "[Compound 40, N-(2-((6,7-dimethoxyquinolin-4-yl)oxy)pyrimidine-5-yl)-6-(4-fluorophenyl)-2-isopropyl-5-oxo-2,5-dihydropyridazine-4-carboxamide]", "values": [
      {"measurement": "IC50", "setting": "[1]", "result": 0.259, "unit": "µM"},
      {"measurement": "Vz_obs iv (apparent distribution volume)", "setting": "[2]; IV 1 mg/kg", "result": 1.84, "unit": "L/kg"},
      {"measurement": "bioavailability", "setting": "[2]; IV 1 mg/kg, PO 5 mg/kg", "result": 63.4, "unit": "%"},
      {"measurement": "AUC(0-t)", "setting": "[2]; [3]", "result": 7270, "unit": "ng·h/mL"},
      {"measurement": "clearance", "setting": "[2]; IV 1 mg/kg", "result": 2.33, "unit": "mL/min/kg"},
      {"measurement": "half-life", "setting": "[2]; [4]", "result": 9.18, "unit": "h"},
      {"measurement": "Tmax", "setting": "[2]; PO 5 mg/kg", "result": 4, "unit": "h"},
      {"measurement": "AUC(0-t)", "setting": "[2]; [5]", "result": 23000, "unit": "ng·h/mL"},
      {"measurement": "half-life", "setting": "[2]; [6]", "result": 8.68, "unit": "h"}
    ]}
  ]
}
